Experiments:
[1] = Clinical trial in healthy volunteers: 5-MeO-DMT and bufotenine plasma levels; format: in vivo, human; conditions: all other samples (1 hour and 3 hours) after inhaled 5-MeO-DMT
Protocol: A clinical trial was performed in which 5-MeO-DMT free base (purity not less than 99%) at different dose levels was administered via inhalation (as described in Example 1) in a single day to healthy volunteers who had prior experiences with the use of synthetic or naturally-occurring psychedelics. The trial was reviewed and approved by the relevant national competent authority and local medical ethics committee. The trial consisted of two parts: Part A, where single doses of 5-MeO-DMT dosage amounts of 2 mg, 6 mg, 12 mg and 18 mg were administered; and Part B, where an initial 5-MeO-DMT dosage amount of 6 mg was administered, and then, unless the participant had already experienced a peak psychedelic experience based on the PPEQ or the supervising physician had decided that further dose increases were inappropriate based on observed side effects, further subsequent dosage amounts of 12 mg and 18 mg were administered with about 3 hours in between each administration. Participants in Part A only received one dose and were not allowed to receive higher doses in later parts of Part A and were not allowed to participate in Part B. Participants were closely monitored for 3.5 hours after the last dose, with additional follow-up visits 1 day and 7 days after dosing. Various safety related measures (e.g., adverse event reporting, safety laboratory analyses, vital signs, ECG, CADSS, PVT, DSST, Prospective Memory Task (PMT)) as well as measures of the intensity of the psychedelic effects (MEQ30, ASC, PPEQ, subjective description of the psychedelic experience) were recorded. Pharmacokinetic analysis of 5-MeO-DMT and bufotenine plasma levels was performed at 1 hour and 3 hours after drug administration in Part A, and at 3 hours after drug administration in Part B.

5-HT2A receptor = 5-HT2A receptor (Homo sapiens, UniProt P28223); conditions: compared with 5-MeO-DMT; cited from earlier work
[2] = tested on: patients with alcohol dependence; conditions: therapy with LSD; cited from earlier work
[3] = tested on: patients with personality trait disturbance or anxiety; conditions: LSD as an aid to psychotherapy; cited from earlier work

Chain of 5-HT2A receptor (P28223 whole entry): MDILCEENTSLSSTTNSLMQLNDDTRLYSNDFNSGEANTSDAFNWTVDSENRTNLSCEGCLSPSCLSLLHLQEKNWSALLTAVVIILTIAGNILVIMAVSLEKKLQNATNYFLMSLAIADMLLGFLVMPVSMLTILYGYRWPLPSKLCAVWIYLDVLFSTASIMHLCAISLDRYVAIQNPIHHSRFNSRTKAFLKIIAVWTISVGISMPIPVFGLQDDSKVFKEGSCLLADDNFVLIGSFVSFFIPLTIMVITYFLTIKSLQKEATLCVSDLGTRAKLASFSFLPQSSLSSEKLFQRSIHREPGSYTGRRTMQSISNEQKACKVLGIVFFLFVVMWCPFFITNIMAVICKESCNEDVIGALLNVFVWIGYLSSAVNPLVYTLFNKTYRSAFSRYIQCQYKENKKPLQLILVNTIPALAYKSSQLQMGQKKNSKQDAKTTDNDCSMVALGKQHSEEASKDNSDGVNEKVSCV

Row | SMILES | plasma levels of the 5-MeO-DMT metabolite bufotenine [1] | affinity for the 5-HT2A receptor (5-HT2A receptor) | patients changed (stop drinking or are much improved) [2] [%] | patients with an outcome of "much improved" or "improved" [3]
1 | CN(C)CCc1c[nH]c2ccc(O)cc12 [bufotenine] | undetectable | much higher affinity than 5-MeO-DMT | – | –
2 | CCN(CC)C(=O)[C@@H]1C=C2c3cccc4[nH]cc(c34)C[C@H]2N(C)C1 [LSD, lysergic acid diethylamide] | – | – | 50 | over 90%

Source: patent US20240307350A1, “5-METHOXY-N,N-DIMETHYLTRYPTAMINE (5-MEO-DMT) FOR TREATING DEPRESSION” (GH RESEARCH IRELAND LIMITED, priority 2019, published 2024)
